Calls of active or inactive are those of the source. No cut-off for these calls is given here.
Columns and labels:
[1] = target: Transcription factor p65 (Homo sapiens) (UniProt Q04206); assay: Inhibition of NF-kappaB P65 nuclear translocation in human HK-2 cells at 0.25 to 5 uM by DAPI staining based fluorescence microscopic analysis; format: cell-based; details: dose 0.25-5 µM
[2] = target: T1, Protein cereblon/Stimulator of interferon genes protein (Homo sapiens, UniProt Q96SW2+Q86WV6); assay: PROTAC activity at CRBN/STING in human THP-1 cells assessed as induction of STING degradation at 5 uM measured after 24 hrs by Western blotting analysis relative to control; format: cell-based
Target sequence in this assay (Q86WV6 whole entry, looked up): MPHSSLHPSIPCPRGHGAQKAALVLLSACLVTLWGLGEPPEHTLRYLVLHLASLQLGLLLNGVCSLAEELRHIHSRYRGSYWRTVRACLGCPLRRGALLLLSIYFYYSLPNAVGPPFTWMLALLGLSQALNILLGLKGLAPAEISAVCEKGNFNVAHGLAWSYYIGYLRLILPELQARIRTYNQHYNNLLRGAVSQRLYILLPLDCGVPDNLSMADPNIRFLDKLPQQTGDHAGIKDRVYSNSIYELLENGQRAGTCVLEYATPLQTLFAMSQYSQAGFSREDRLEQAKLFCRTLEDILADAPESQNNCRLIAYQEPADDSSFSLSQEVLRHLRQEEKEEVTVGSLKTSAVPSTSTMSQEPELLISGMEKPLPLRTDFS
Target sequence in this assay (Q96SW2 whole entry, looked up): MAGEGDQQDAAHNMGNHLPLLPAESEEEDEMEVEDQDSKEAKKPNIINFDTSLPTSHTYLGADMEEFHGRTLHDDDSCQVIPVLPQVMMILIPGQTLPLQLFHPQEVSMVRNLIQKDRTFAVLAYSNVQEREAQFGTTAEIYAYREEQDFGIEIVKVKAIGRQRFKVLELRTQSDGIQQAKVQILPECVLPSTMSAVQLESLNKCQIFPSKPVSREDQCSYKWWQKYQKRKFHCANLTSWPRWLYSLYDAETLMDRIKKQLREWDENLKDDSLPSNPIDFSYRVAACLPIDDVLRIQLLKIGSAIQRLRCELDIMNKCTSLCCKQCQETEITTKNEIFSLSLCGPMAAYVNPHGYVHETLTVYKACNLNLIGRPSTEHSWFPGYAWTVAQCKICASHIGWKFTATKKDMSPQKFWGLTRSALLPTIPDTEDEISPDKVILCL

[3] = target: T1, Protein cereblon/Stimulator of interferon genes protein; assay: PROTAC activity at CRBN/STING in human THP-1 cells assessed as induction of STING degradation measured after 24 hrs by Western blotting analysis; format: cell-based
Target sequence in this assay (Q96SW2 whole entry): as the sequence (Q96SW2 whole entry, looked up) above
Target sequence in this assay (Q86WV6 whole entry): as the sequence (Q86WV6 whole entry, looked up) above

[4] = target: T1, Protein cereblon/Stimulator of interferon genes protein; assay: PROTAC activity at CRBN/STING in human THP-1 cells assessed as induction of STING degradation by Western blotting analysis; format: cell-based; details: time 1-48 hrs
Target sequence in this assay (Q86WV6 whole entry, looked up): as above
Target sequence in this assay (Q96SW2 whole entry, looked up): as the sequence (Q96SW2 whole entry, looked up) above

[5] = target: T1, Protein cereblon/Stimulator of interferon genes protein; assay: PROTAC activity at CRBN/STING in human THP-1 cells assessed as induction of STING degradation at 5 uM incubated for 24 hrs in presence of MG132 by Western blotting analysis; format: cell-based
Target sequence in this assay (Q86WV6 whole entry, looked up): as the sequence (Q86WV6 whole entry, looked up) above
Target sequence in this assay (Q96SW2 whole entry, looked up): as the sequence (Q96SW2 whole entry, looked up) above

[6] = target: T1, Protein cereblon/Stimulator of interferon genes protein; assay: PROTAC activity at CRBN/STING in human THP-1 cells assessed as induction of STING degradation at 5 uM incubated for 24 hrs in presence of bafilomycin by Western blotting analysis; format: cell-based
Target sequence in this assay (Q86WV6 whole entry, looked up): as the sequence (Q86WV6 whole entry, looked up) above
Target sequence in this assay (Q96SW2 whole entry, looked up): as the sequence (Q96SW2 whole entry, looked up) above

[7] = system: HK-2; assay: Inhibition of STING downstream signal pathway in cisplatin stimulated human HK-2 cells assessed as reduction in p-IRF3 level by […] analysis; format: cell-based; details: dose 1.25-5 µM
[8] = system: HK-2; assay: Inhibition of STING downstream signal pathway in cisplatin stimulated human HK-2 cells assessed as reduction in P-P65 level by […] analysis; format: cell-based; details: dose 1.25-5 µM
[9] = system: THP-1; assay: PROTAC activity at CRBN/STAT3 in human THP-1 cells assessed as induction of STAT3 degradation at 1.25 to 20 uM by Western blotting analysis; format: cell-based; details: dose 1.25-20 µM
[10] = system: THP-1; assay: PROTAC activity at CRBN/AKT in human THP-1 cells assessed as induction of AKT degradation at 1.25 to 20 uM measured after 24 hrs by Western blotting analysis; format: cell-based; details: dose 1.25-20 µM
[11] = system: HEK-293T; assay: Cytotoxicity against human HEK293T cells assessed as reduction in cell viability at 0.5 to 120 uM incubated for 24 hrs by MTT assay; format: toxicity, cell-based; details: dose 0.5-120 µM
[12] = system: H9c2; assay: Cytotoxicity against rat H9c2 cells assessed as reduction in cell viability at 0.5 to 120 uM incubated for 24 hrs by MTT assay; format: toxicity, cell-based; details: h9c2, 24 h, dose 0.5-120 µM
[13] = Acute toxicity in C57BL/6J mouse assessed as change in body weight at 30 mg/kg; format: organism-based; details: in vivo
[14] = Acute toxicity in C57BL/6J mouse assessed as change in body weight at 43 mg/kg; format: organism-based; details: in vivo
[15] = Acute toxicity in C57BL/6J mouse assessed as change in body weight at 88 mg/kg; format: organism-based; details: in vivo
[16] = Acute toxicity in C57BL/6J mouse assessed as change in body weight at 179 mg/kg; format: organism-based; details: in vivo
[17] = Acute toxicity in C57BL/6J mouse assessed as survival at 30 to 179 mg/kg; format: organism-based; details: in vivo, dose 30-179 mg/kg
[18] = Metabolic stability in human liver microsomes assessed as metabolic factor relative to control; format: ADME, Microsome
[19] = Metabolic stability in human liver microsomes assessed as intrinsic clearance per gram of protein; format: ADME, Microsome
[20] = AUC (0 to t) in male Sprague-Dawley rat at 2 mg/kg, iv measured after 12 hrs by LC-MS/MS analysis; format: ADME, organism-based; details: in vivo
[21] = Half life in male Sprague-Dawley rat at 2 mg/kg, iv measured after 12 hrs by LC-MS/MS analysis; format: ADME, organism-based; details: in vivo
[22] = Tmax in male Sprague-Dawley rat at 2 mg/kg, iv measured after 12 hrs by LC-MS/MS analysis; format: ADME, organism-based; details: in vivo
[23] = Clearance in male Sprague-Dawley rat at 2 mg/kg, iv measured after 12 hrs by LC-MS/MS analysis; format: ADME, organism-based; details: in vivo
[24] = Apparent volume of distribution in male Sprague-Dawley rat at 2 mg/kg, iv measured after 12 hrs by LC-MS/MS analysis; format: ADME, organism-based; details: in vivo, read-out: Vz
[25] = Cmax in male Sprague-Dawley rat at 2 mg/kg, iv measured after 12 hrs by LC-MS/MS analysis; format: ADME, organism-based; details: in vivo
[26] = Toxicity in cisplatin-induced acute kidney injury C57BL/6J mouse model assessed as morphological abnormality in liver at 25 to 50 mg/kg, ip by H and E staining based analysis; format: organism-based; details: in vivo, dose 25-50 mg/kg
[27] = Toxicity in cisplatin-induced acute kidney injury C57BL/6J mouse model assessed as morphological abnormality in heart at 25 to 50 mg/kg, ip by H and E staining based analysis; format: organism-based; details: in vivo, dose 25-50 mg/kg
[28] = Toxicity in cisplatin-induced acute kidney injury C57BL/6J mouse model assessed as morphological abnormality in spleen at 25 to 50 mg/kg, ip by H and E staining based analysis; format: organism-based; details: in vivo, dose 25-50 mg/kg
[29] = system: Mus musculus; assay: Renoprotective activity against cisplatin-induced C57BL/6J mouse acute kidney injury model assessed as survival rate at 25 mg/kg, ip measured after 72 hrs relative to control; format: functional
[30] = system: Mus musculus; assay: Renoprotective activity against cisplatin-induced C57BL/6J mouse acute kidney injury model assessed as survival rate at 50 mg/kg, ip measured after 72 hrs relative to control; format: functional
[31] = system: Mus musculus; assay: Renoprotective activity against cisplatin-induced C57BL/6J mouse acute kidney injury model assessed as decrease in disease activity index score at 25 to 50 mg/kg, ip measured after 72 hrs; format: functional, organism-based; details: dose 25-50 mg/kg
[32] = system: Mus musculus; assay: Renoprotective activity against cisplatin-induced C57BL/6J mouse acute kidney injury model assessed as reduction in BUN level at 25 to 50 mg/kg, ip measured after 72 hrs; format: functional, organism-based; details: dose 25-50 mg/kg
[33] = target: T2, Protein cereblon/Stimulator of interferon genes protein (Mus musculus) (UniProt Q3TBT3+Q8C7D2); assay: In vivo inhibition of STING/TBK1/NF-kappaB signaling in C57BL/6J mouse assessed as decrease in STING protein level in kidney at 25 to 50 mg/kg, ip measured after 72 hrs by Western blotting analysis; format: functional, organism-based; details: dose 25-50 mg/kg
T2 sequence (Q3TBT3 whole entry, looked up): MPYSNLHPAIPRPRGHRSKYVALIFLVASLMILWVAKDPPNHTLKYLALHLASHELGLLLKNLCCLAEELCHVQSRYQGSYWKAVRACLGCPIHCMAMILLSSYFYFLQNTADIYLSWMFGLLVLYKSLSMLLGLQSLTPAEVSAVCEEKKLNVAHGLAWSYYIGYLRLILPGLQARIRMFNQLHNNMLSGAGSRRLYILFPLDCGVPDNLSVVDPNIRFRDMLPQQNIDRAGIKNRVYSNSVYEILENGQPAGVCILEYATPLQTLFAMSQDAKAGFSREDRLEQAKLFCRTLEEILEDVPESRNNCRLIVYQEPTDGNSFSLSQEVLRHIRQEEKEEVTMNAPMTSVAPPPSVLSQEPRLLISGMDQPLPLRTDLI
T2 sequence (Q8C7D2 whole entry, looked up): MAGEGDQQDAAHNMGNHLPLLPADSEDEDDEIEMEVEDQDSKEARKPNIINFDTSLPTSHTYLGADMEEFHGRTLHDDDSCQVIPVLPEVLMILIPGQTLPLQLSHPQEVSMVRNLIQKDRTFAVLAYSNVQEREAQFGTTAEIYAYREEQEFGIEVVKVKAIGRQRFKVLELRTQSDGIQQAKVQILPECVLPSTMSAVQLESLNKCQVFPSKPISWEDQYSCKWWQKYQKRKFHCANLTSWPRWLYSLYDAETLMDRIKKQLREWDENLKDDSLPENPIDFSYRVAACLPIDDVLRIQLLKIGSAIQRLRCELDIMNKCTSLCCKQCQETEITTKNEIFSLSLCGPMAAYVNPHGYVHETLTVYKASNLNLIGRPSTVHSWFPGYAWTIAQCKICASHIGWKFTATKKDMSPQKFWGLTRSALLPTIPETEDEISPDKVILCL

[34] = target: T2, Protein cereblon/Stimulator of interferon genes protein (Mus musculus); assay: In vivo inhibition of STING/TBK1/NF-kappaB signaling in C57BL/6J mouse assessed as decrease in P-P65 protein level in kidney at 25 to 50 mg/kg, ip measured after 72 hrs by Western blotting analysis; format: functional, organism-based; details: dose 25-50 mg/kg
[35] = target: T2, Protein cereblon/Stimulator of interferon genes protein (Mus musculus); assay: In vivo inhibition of STING/TBK1/NF-kappaB signaling in C57BL/6J mouse assessed as decrease in serum IFN-beta level at 25 to 50 mg/kg, ip measured after 72 hrs by ELISA; format: functional, organism-based; details: dose 25-50 mg/kg
[36] = target: T2, Protein cereblon/Stimulator of interferon genes protein (Mus musculus); assay: In vivo inhibition of STING/TBK1/NF-kappaB signaling in C57BL/6J mouse assessed as decrease in serum CXCL10 level at 25 to 50 mg/kg, ip measured after 72 hrs by ELISA; format: functional, organism-based; details: dose 25-50 mg/kg

Sequence of Transcription factor p65 (Homo sapiens) (Q04206 whole entry): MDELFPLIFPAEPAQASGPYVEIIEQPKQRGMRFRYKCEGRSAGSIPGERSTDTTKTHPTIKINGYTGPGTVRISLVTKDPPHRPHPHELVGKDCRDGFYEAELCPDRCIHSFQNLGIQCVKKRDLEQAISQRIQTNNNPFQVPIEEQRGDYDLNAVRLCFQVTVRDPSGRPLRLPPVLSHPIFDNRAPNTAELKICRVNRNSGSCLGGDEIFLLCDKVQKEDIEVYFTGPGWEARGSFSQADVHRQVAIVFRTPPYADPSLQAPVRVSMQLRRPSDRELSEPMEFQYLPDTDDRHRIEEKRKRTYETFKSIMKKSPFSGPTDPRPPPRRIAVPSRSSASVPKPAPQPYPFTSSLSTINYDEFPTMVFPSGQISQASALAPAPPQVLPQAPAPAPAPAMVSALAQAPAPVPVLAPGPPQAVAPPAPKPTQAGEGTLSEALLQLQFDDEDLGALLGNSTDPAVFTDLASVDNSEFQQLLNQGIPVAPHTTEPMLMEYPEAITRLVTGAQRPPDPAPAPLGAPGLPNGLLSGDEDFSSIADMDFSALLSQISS

With O=C(/C=C/C(=O)N1CCN(CC2CCN(c3cccc4c3C(=O)N(C3CCC(=O)NC3=O)C4=O)C2)CC1)Nc1ccc(NC(=O)c2ccc([N+](=O)[O-])o2)cc1 (stereo unspecified) the inhibition [1] was “Active”, the Activity [2] was 90.6% and the DC50 [3] was 620 nM. The Activity [4] was “Time-dependent-effect”, the Activity [5] was “inactive” and the Activity [6] was “Active”. The inhibition [7] was “Dose-dependent-effect”, the inhibition [8] was “Dose-dependent-effect” and the Activity [9] was “inactive”. The Activity [10] was “inactive”, the Activity [11] was “Non-toxic” and the Activity [12] was “Non-toxic”. It also gave an Activity [13] of 25.1 g, an Activity [14] of 24.2 g and an Activity [15] of 24.9 g. It also gave an Activity [16] of 22.8 g, a survival [17] of 100% and an Activity [18] of 15.8%. The CLint [19] was 104 mL/min/g, the AUC(0-t) at 12 h [20] was 729 ng·h/mL and the half-life [21] was 51.6 min. It also gave a Tmax [22] of 4.8 min, a CL [23] of 53.3 mL/min/kg and a Vd [24] of 3.9 L/kg. For the same compound, the Cmax [25] was 2390 ng/mL, the Activity [26] was “Non-toxic” and the Activity [27] was “Non-toxic”. The Activity [28] was “Non-toxic”, the survival at 25 mg/kg [29] was 78% and the survival at 50 mg/kg [30] was 100%. For the same compound, the Activity_index [31] was “Active”, the Activity [32] was “Active” and the inhibition [33] was “Active”. The inhibition [34] was “Active”, the inhibition [35] was “Active” and the inhibition [36] was “Active”.

From ChEMBL document CHEMBL6182863, “Discovery of novel rigid STING PROTAC degraders as potential therapeutics for acute kidney injury” (Eur J Med Chem, 2025)
